Experimental data reported in the kinase profiling compilation of Christmann-Franck et al. (2016).

How the values were obtained:
Experiment in all cases: KINOMEscan competition binding
Conditions in all cases: compound 10.0 µM
MAP3K15 (human) = MAP3K15 (human) (UniProt Q6ZN16)
STK17B (human) = STK17B (human) (UniProt O94768)
EPHA4 (human) = EPHA4 (human) (UniProt P54764)
MARK3 (human) = MARK3 (human) (UniProt P27448)
PIK3C2B (human) = PIK3C2B (human) (UniProt O00750)
RPS6KA5 KD2 (human) = RPS6KA5 KD2 (human) (UniProt O75582)
DCLK1 (human) = DCLK1 (human) (UniProt O15075)
Sequence of DCLK1 (human) (O15075 whole entry, looked up): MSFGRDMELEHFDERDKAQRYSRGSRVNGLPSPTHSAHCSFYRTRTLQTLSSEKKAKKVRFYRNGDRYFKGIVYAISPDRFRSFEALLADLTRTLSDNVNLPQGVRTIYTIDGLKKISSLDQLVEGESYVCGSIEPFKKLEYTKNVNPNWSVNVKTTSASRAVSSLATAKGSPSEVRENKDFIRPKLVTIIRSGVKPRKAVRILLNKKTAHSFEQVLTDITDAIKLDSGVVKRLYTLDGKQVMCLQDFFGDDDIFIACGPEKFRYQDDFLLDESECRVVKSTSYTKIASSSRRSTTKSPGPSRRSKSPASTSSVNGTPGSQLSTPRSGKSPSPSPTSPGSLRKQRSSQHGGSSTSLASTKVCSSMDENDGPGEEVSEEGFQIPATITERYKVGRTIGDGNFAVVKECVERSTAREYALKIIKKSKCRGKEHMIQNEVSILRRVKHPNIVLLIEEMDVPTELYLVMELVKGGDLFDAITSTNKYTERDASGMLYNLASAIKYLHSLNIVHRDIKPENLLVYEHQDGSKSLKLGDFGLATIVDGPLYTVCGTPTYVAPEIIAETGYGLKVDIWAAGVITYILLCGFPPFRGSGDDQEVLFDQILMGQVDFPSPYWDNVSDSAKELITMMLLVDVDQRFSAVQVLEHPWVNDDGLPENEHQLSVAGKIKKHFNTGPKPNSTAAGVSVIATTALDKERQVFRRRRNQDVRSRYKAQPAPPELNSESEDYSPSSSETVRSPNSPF

PRKG1 (human) = PRKG1 (human) (UniProt Q13976)
GSK3A (human) = GSK3A (human) (UniProt P49840)
CLK3 (human) = CLK3 (human) (UniProt P49761)
SIK1 (human) = SIK1 (human) (UniProt P57059)
[1] = test system: EGFR (human), P00533 [L858R]
CRK2 (P.falciparum) = CRK2 (P.falciparum) (UniProt P61075)
[2] = test system: EGFR (human), P00533 [746-750 del]
CPK1 (P.falciparum) = test system: CPK1 (P.falciparum)
EPHA8 (human) = EPHA8 (human) (UniProt P29322)
PI4KB (human) = PI4KB (human) (UniProt Q9UBF8)
TSSK1B (human) = TSSK1B (human) (UniProt Q9BXA7)
[3] = biological target: TYK2 JH1 catalytic (human) (UniProt P29597)
Sequence of TYK2 JH1 catalytic (human) (P29597 whole entry, looked up): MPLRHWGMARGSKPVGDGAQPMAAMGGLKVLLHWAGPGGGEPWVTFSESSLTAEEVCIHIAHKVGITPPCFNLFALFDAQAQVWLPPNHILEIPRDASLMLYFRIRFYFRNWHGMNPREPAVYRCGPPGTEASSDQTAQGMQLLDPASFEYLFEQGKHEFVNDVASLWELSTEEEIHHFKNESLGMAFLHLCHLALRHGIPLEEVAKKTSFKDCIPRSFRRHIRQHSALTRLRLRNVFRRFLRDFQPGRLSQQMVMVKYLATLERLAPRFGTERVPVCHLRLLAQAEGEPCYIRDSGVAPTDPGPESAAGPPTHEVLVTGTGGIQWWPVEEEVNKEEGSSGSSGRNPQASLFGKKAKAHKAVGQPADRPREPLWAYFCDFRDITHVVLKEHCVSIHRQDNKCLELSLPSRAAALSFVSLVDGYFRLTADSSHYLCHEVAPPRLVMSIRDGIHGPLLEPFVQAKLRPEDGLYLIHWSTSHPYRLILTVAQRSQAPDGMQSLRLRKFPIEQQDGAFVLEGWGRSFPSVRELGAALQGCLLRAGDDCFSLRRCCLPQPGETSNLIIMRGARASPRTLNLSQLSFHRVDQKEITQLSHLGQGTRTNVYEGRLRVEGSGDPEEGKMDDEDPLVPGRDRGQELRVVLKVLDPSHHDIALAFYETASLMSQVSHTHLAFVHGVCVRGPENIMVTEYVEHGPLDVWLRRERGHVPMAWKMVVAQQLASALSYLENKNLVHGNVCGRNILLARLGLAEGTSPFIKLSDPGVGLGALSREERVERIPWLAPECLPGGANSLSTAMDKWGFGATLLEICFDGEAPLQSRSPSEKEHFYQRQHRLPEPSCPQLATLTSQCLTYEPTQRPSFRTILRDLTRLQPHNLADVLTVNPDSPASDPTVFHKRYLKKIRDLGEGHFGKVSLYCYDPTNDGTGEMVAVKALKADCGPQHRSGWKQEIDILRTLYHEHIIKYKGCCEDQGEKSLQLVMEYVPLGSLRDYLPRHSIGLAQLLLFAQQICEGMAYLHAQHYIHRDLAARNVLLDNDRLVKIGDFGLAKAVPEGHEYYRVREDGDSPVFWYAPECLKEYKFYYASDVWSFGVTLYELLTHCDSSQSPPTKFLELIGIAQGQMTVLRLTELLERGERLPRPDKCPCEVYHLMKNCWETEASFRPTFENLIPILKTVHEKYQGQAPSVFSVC

MAPK7 (human) = MAPK7 (human) (UniProt Q13164)
ERBB3 (human) = ERBB3 (human) (UniProt P21860)
MAP4K4 (human) = MAP4K4 (human) (UniProt O95819)
Sequence of MAP4K4 (human) (O95819 whole entry, looked up): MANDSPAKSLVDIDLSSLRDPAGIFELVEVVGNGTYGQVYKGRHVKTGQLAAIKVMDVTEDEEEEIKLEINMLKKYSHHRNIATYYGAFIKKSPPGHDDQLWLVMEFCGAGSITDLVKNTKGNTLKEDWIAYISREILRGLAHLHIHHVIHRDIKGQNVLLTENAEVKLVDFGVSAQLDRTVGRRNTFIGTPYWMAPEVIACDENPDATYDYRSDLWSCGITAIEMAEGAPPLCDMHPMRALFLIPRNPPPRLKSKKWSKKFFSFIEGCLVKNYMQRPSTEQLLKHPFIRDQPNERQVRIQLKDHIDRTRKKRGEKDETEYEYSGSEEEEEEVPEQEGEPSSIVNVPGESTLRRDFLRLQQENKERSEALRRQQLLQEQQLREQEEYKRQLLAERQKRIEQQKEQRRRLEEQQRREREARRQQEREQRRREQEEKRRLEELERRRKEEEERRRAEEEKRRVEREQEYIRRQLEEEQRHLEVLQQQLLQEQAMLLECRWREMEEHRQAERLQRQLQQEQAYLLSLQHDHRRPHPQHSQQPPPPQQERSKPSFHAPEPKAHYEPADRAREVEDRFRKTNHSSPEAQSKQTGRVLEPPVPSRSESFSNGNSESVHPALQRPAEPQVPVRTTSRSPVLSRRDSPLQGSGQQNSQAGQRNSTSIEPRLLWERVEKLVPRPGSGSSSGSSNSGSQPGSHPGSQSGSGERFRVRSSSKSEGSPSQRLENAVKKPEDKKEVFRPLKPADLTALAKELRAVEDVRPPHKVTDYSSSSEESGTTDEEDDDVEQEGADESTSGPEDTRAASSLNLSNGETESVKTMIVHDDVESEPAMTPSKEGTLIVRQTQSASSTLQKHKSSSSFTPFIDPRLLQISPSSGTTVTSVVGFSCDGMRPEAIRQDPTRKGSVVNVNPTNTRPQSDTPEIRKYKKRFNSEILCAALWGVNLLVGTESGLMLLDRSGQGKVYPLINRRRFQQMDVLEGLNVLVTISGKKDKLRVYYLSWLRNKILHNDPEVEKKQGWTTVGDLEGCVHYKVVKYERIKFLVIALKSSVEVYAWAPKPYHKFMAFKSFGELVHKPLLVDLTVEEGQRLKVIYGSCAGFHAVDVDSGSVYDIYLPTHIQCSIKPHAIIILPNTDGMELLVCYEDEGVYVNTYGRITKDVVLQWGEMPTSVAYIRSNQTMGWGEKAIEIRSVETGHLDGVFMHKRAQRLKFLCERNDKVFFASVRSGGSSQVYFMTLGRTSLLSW

MAPK15 (human) = MAPK15 (human) (UniProt Q8TD08)
TLK1 (human) = TLK1 (human) (UniProt Q9UKI8)
CDK2 (human) = CDK2 (human) (UniProt P24941)
MARK2 (human) = MARK2 (human) (UniProt Q7KZI7)
ICK (human) = ICK (human) (UniProt Q9UPZ9)
MAST1 (human) = MAST1 (human) (UniProt Q9Y2H9)
TESK1 (human) = TESK1 (human) (UniProt Q15569)
DCLK2 (human) = DCLK2 (human) (UniProt Q8N568)
Sequence of DCLK2 (human) (Q8N568 whole entry, looked up): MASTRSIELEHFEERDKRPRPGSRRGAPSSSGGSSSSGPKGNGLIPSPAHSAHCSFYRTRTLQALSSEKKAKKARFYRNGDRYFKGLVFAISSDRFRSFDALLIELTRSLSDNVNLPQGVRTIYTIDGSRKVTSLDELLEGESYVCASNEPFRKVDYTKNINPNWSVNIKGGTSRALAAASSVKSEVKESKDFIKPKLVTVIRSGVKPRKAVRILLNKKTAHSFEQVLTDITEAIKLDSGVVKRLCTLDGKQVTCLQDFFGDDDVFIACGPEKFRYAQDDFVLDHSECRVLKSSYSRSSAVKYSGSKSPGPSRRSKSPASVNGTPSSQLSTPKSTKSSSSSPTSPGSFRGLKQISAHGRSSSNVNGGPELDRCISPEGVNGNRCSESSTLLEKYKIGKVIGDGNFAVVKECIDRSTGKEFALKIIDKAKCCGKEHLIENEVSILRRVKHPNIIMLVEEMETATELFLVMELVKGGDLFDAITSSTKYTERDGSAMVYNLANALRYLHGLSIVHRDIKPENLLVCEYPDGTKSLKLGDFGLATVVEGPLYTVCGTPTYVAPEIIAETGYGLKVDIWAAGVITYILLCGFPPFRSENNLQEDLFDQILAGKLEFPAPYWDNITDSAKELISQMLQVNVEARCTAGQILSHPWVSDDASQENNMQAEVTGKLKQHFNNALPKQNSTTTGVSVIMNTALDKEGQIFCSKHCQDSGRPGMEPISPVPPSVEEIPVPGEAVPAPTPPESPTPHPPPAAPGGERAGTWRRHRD

[4] = biological target: JAK1 JH1 catalytic (human) (UniProt P23458)
MAP2K1 (human) = MAP2K1 (human) (UniProt Q02750)
Sequence of MAP2K1 (human) (Q02750 whole entry, looked up): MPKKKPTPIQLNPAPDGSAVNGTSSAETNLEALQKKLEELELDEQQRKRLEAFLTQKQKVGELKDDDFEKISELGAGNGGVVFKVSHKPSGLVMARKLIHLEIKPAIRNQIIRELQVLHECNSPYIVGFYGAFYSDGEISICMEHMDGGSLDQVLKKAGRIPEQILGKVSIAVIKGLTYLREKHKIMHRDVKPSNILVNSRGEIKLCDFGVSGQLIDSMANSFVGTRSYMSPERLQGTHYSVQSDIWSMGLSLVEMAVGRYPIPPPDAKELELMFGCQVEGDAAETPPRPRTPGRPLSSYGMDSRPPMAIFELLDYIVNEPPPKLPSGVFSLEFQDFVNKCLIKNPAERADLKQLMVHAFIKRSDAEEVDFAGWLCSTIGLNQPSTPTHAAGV

TYRO3 (human) = TYRO3 (human) (UniProt Q06418)
MET (human) = MET (human) (UniProt P08581)
IRAK3 (human) = IRAK3 (human) (UniProt Q9Y616)
MAPK4 (human) = MAPK4 (human) (UniProt P31152)
CSNK1G2 (human) = CSNK1G2 (human) (UniProt P78368)
MAPK11 (human) = MAPK11 (human) (UniProt Q15759)
PAK3 (human) = PAK3 (human) (UniProt O75914)
CAMK2G (human) = CAMK2G (human) (UniProt Q13555)
Sequence of CAMK2G (human) (Q13555 whole entry, looked up): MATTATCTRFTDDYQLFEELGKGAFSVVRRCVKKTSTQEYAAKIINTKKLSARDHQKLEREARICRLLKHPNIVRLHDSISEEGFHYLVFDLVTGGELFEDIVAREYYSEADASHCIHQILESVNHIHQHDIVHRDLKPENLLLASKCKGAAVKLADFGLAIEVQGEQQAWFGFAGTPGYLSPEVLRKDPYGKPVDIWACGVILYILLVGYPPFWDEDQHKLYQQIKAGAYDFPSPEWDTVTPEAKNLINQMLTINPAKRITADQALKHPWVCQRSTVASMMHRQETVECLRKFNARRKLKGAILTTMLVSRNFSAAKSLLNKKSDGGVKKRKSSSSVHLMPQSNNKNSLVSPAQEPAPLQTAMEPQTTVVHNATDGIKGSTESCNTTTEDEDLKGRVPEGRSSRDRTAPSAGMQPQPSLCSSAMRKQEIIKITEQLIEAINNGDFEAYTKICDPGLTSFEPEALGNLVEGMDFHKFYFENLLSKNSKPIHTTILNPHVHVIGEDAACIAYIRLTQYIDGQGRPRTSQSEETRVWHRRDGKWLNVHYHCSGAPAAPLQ

BMP2K (human) = BMP2K (human) (UniProt Q9NSY1)
PRKCE (human) = PRKCE (human) (UniProt Q02156)

Cc1cc([C@@H](C)Nc2ccccc2C(=O)O)c2nc(N3CCOCC3)cc(=O)n2c1
kinase still bound, per cent of control (MAP3K15 (human)): 55% | kinase still bound, per cent of control (STK17B (human)): 100% | kinase still bound, per cent of control (EPHA4 (human)): 91% | kinase still bound, per cent of control (MARK3 (human)): 95% | kinase still bound, per cent of control (PIK3C2B (human)): 1% | kinase still bound, per cent of control (RPS6KA5 KD2 (human)): 100% | kinase still bound, per cent of control (DCLK1 (human)): 100% | kinase still bound, per cent of control (PRKG1 (human)): 79% | kinase still bound, per cent of control (GSK3A (human)): 100% | kinase still bound, per cent of control (CLK3 (human)): 95% | kinase still bound, per cent of control (SIK1 (human)): 100% | kinase still bound, per cent of control [1]: 96% | kinase still bound, per cent of control (CRK2 (P.falciparum)): 92% | kinase still bound, per cent of control [2]: 100% | kinase still bound, per cent of control (CPK1 (P.falciparum)): 75% | kinase still bound, per cent of control (EPHA8 (human)): 82% | kinase still bound, per cent of control (PI4KB (human)): 89% | kinase still bound, per cent of control (TSSK1B (human)): 79% | kinase still bound, per cent of control [3]: 100% | kinase still bound, per cent of control (MAPK7 (human)): 100% | kinase still bound, per cent of control (ERBB3 (human)): 100% | kinase still bound, per cent of control (MAP4K4 (human)): 98% | kinase still bound, per cent of control (MAPK15 (human)): 100% | kinase still bound, per cent of control (TLK1 (human)): 100% | kinase still bound, per cent of control (CDK2 (human)): 64% | kinase still bound, per cent of control (MARK2 (human)): 100% | kinase still bound, per cent of control (ICK (human)): 100% | kinase still bound, per cent of control (MAST1 (human)): 54% | kinase still bound, per cent of control (TESK1 (human)): 100% | kinase still bound, per cent of control (DCLK2 (human)): 100% | kinase still bound, per cent of control [4]: 70% | kinase still bound, per cent of control (MAP2K1 (human)): 100% | kinase still bound, per cent of control (TYRO3 (human)): 100% | kinase still bound, per cent of control (MET (human)): 95% | kinase still bound, per cent of control (IRAK3 (human)): 75% | kinase still bound, per cent of control (MAPK4 (human)): 82% | kinase still bound, per cent of control (CSNK1G2 (human)): 100% | kinase still bound, per cent of control (MAPK11 (human)): 100% | kinase still bound, per cent of control (PAK3 (human)): 12% | kinase still bound, per cent of control (CAMK2G (human)): 87% | kinase still bound, per cent of control (BMP2K (human)): 100% | kinase still bound, per cent of control (PRKCE (human)): 100%
